Columns and labels:
Assay in all cases: relative viability (nuclei count vs DMSO), 5 days (fraction); higher = more cells survive
[1] = compound: CC1(C)CNc2cc(NC(=O)c3cccnc3NCc3ccncc3)ccc21 [Motesanib] + CC(=O)Nc1cccc(-n2c(=O)n(C3CC3)c(=O)c3c(Nc4ccc(I)cc4F)n(C)c(=O)c(C)c32)c1 [Trametinib] (partner 0.02 µM)
How it was run: (§1)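 Relative viability was taken as the ratio of nuclei in treated wells to nuclei in vehicle wells. Lung cancer cell lines in 1536-well plates received compounds by pin tool one day after seeding, either one drug alone or a fixed anchor-drug dose plus five library-drug doses (not always all listed) in √10 steps. Nuclei were counted on 4× images after 5 days of treatment, and values are medians of duplicate plates.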

[2] = compound: CC1(C)CNc2cc(NC(=O)c3cccnc3NCc3ccncc3)ccc21 [Motesanib] + CC(C)C[C@H](NC(=O)[C@H](Cc1ccccc1)NC(=O)c1cnccn1)B(O)O [Bortezomib] (partner 0.002 µM)
How it was run: as §1

[3] = compound: C[C@@]1(C(=O)Nc2ccc(F)nc2)CCCN1c1nc(Nc2cc(C3CC3)n[nH]2)c2cccn2n1 + CC1(C)CCC(c2ccc(Cl)cc2)=C(CN2CCN(c3ccc(C(=O)NS(=O)(=O)c4ccc(N[C@H](CCN5CCOCC5)CSc5ccccc5)c(S(=O)(=O)C(F)(F)F)c4)cc3)CC2)C1 [Navitoclax] (partner 0.5 µM)
How it was run: as §1

[4] = compound: C[C@@]1(C(=O)Nc2ccc(F)nc2)CCCN1c1nc(Nc2cc(C3CC3)n[nH]2)c2cccn2n1 + Cc1cc(Nc2cc(N3CCN(C)CC3)nc(Sc3ccc(NC(=O)C4CC4)cc3)n2)n[nH]1 [Tozasertib] (partner 0.1 µM)
How it was run: as §1

UMC-11
relative viability ([1]; first compound 0.01 µM): 0.659
relative viability ([1]; first compound 0.03162 µM): 0.94
relative viability ([1]; first compound 0.1 µM): 0.611
relative viability ([1]; first compound 0.3162 µM): 0.744
relative viability ([1]; first compound 1 µM): 0.762
relative viability ([2]; first compound 0.01 µM): 0.648
relative viability ([2]; first compound 0.03162 µM): 0.767
relative viability ([2]; first compound 0.1 µM): 0.64
relative viability ([2]; first compound 0.3162 µM): 0.683
relative viability ([2]; first compound 1 µM): 0.951
relative viability ([3]; first compound 0.04 µM): 0.365
relative viability ([3]; first compound 0.1265 µM): 0.293
relative viability ([3]; first compound 0.4 µM): 0.249
relative viability ([3]; first compound 1.265 µM): 0.269
relative viability ([4]; first compound 0.04 µM): 0.2
relative viability ([4]; first compound 0.1265 µM): 0.203
relative viability ([4]; first compound 0.4 µM): 0.204
relative viability ([4]; first compound 1.265 µM): 0.184
